What all share (format): cell-based
In experiment [1] the test system is human hepatic epithelial cells HepG2. Nature of the experiment: Senolytic activity on doxorubicin-induced senescent HepG2 cells (crystal violet survival). The following applies: senescent HepG2, 1-60 μM, 72 h (FIG. 3b). As to the method: (§1) The successful conversion to the senescent cell phenotype was confirmed by morphological changes (flattening and cell enlargement) and positivity for lysosomal beta-galactosidase (β-GAL). The SA-β-GAL (senescence-associated β-GAL) senescence assay was performed with the SA-β-Gal Staining Kit (Cell Signaling Technology, Inc., Danvers, MA). Briefly, after fixation with […] for 15 min at room temperature, senescent cells were quantified by calculating the percentage of SA-β-GAL positive (blue stained) cells present in culture by examining 200 cells per well with the phase contrast microscope EVOS XL Cell Imaging System (Thermo Fisher; objective, 40X).
(§2) Senolytic activity on senescent human cells (in 96-well plates) was evaluated after specific treatments (for 72 h), including vehicle (DMSO; negative control), quercetin (Que; positive control) or different compounds according to the ‘invention bearing identification codes as fully illustrated also in patent application WO 2019/008537 A1, filed on May 7, 2017 in the name of Vera Salus Ricerca SrI (FIGS. 1, 2 and 3) from page 91 to page 106 and in the relative Figures. At the end of the treatments, cell survival was quantified by crystal violet staining. […] After further washing with water (3X), 100 μl of acetic acid (10%) were added per well and the absorbance (λ=590 nm) measured with a Synergy spectrophotometer (AHSI). […]

In experiment [2] the test system is human intestinal epithelium cells HCT116. Description: Senolytic activity on doxorubicin-induced senescent HCT116 cells (crystal violet survival). The following applies: senescent HCT116, 1-60 μM, 72 h (FIG. 2a). Here is the method:
as §1, §2

Experiment [3] deals with human renal epithelial cells 786-0. Description: Senolytic activity on doxorubicin-induced senescent 786-0 cells (crystal violet survival). The following applies: senescent 786-0, 1-60 μM, 72 h (FIG. 2b). As to the method: as §1, §2
Experiment [4] has as its system human WS1 fibroblast cells. Description: Senolytic activity on doxorubicin-induced senescent WS1 fibroblasts (crystal violet survival). As to the method: as §1
Senolytic activity on senescent human cells (in 96-well plates) was evaluated after specific treatments (for 72 h), including vehicle (DMSO; negative control), quercetin (Que; positive control) or different compounds according to the ‘invention bearing identification codes as fully illustrated also in patent application WO 2019/008537 A1, filed on May 7, 2017 in the name of Vera Salus Ricerca SrI (FIGS. 1, 2 and 3) from page 91 to page 106 and in the relative Figures. At the end of the treatments, cell survival was quantified by crystal violet staining. Briefly, cells were fixed with paraformaldehyde (4%) in PBS for 20 min, washed (2X in distilled water) and stained with 1% crystal violet (for 20 min). After further washing with water (3X), 100 μl of acetic acid (10%) were added per well and the absorbance (λ=590 nm) measured with a Synergy spectrophotometer (AHSI). Each experiment was carried out in quadruplicate and repeated at least three times, on three different days. Senolytic activity was expressed as % of senescent cells eliminated with respect to the control condition (DMSO). Results were presented as means±SEM (standard error of mean) and related analyzes were performed with GraphPadPrism® 6.0 software (CA, USA).
In a first step, the senolytic activities of the compounds according to the invention were investigated in human WS1 fibroblast cells (normal fibroblasts of cutaneous origin, ATCC® CRL-1502™). WS1 cell senescence was induced with 100 nM doxorubicin (24 h) and 12 days of recovery, while the senolytic activity was quantified after treatments with vehicle (DMSO), quercetin (Que, 20 μM), quercetin (20 μM) plus dasatinib (DAS, 200 nM; other positive control) or 18 distinct compounds according to the invention used at a concentration of 20 μM, alone (FIG. 1a) or in the presence of 200 nM dasatinib (FIG. 1b).

Experiment [5] concerns human lung epithelium cells A549. Description: Senolytic activity on doxorubicin-induced senescent A549 cells (crystal violet survival). The following applies: senescent A549, 1-60 μM, 72 h (FIG. 3c). Here is the method: as §1, §2
Experiment [6] relates to human pancreatic epithelial cells PANC-1. Description: Senolytic activity on doxorubicin-induced senescent PANC-1 cells (crystal violet survival). The following applies: senescent PANC-1, 1-60 μM, 72 h (FIG. 3a). Here is the method:
as §1, §2

The record followed here is US20240041820A1, “SENOTHERAPEUTIC COMPOUND” (BIONEXA S.R.L., priority 2020, published 2024).

Molecules are shown by their SMILES. “Also recorded” adds a separate entry of the source.

As for `COc1ccc(-c2ccc(C(=O)NCCOCCOc3c(-c4ccc(O)c(O)c4)oc4cc(O)cc(O)c4c3=O)cc2)cc1` [29g], the “senolytic activity compared with quercetin” value in experiment [1], in experiment [2], in experiment [3], in experiment [5] and in experiment [6] was “significantly higher than quercetin” each time. For the same molecule, in experiment [4] (senescent WS1, 20 μM alone vs quercetin 20 μM, 72 h (FIG. 1a)), the “senolytic effect relative to that of quercetin” value is recorded as around 3 times. In addition, in experiment [4] (senescent WS1, 20 μM alone, 72 h (FIG. 1a)), the “senolytic effect in words, compared with the other compounds / treatments” value is recorded as “maximum senolytic effects; also recorded: higher senolytic effect than all the other compounds”. Further, the “senolytic effect of compound alone compared with the combination quercetin plus dasatinib” value in experiment [4] (senescent WS1, compound 20 μM alone vs quercetin 20 μM + dasatinib 200 nM, 72 h) is “greater than the combination of quercetin plus dasatinib”. The “senolytic effect (% of senescent cells eliminated with respect to DMSO control)” value in experiment [4] (senescent WS1, compound 20 μM alone, 72 h (FIG. 1a)) is around 60%. In addition, the “senolytic action compared with quercetin plus dasatinib” value in experiment [4] (senescent WS1, compound 20 μM in the presence of 200 nM dasatinib vs quercetin 20 μM + dasatinib 200 nM, 72 h (FIG. 1b)) was “more effective”.
